Patent publication US4609655A, “Anti-ulcer imidazo-quinoline, indole and benzazepine derivatives” (John Wyeth & Brother, Ltd., priority 1983, dated 1986)
Where two headings read alike, the source gives them in different places.

Tests used:
[1] = target: T1, H^+ /K^+ ATPase (Oryctolagus cuniculus, UniProt P27112); test: Inhibition of 14C-aminopyrine uptake in rabbit isolated gastric glands stimulated by DBcAMP or high K+ (H+/K+ ATPase inhibition); format: cell-based; conditions: compound at 10^-4 M, % inhibition of maximum response
T1 construct: Rabbit gastric glands are isolated from gastric mucosa; from tissue; host or cells: isolated gastric glands from gastric mucosa of the corpus region of rabbit stomach
Experimental: Compounds of formula I were also tested for anti-secretory activity by their ability to inhibit the highly specific proton transporting enzyme H^+ /K^+ ATPase.
Potential H+/K^+ ATPase inhibitors are evaluated by a technique involving the measurement of aminopyrine accumulation in rabbit isolated gastric glands. Amino-pyrine, which is a weak base, accumulates in acid-secreting cells; therefore, uptake of aminopyrine is increased by secretagogues and an inhibitor of acid secretion will reduce the response to one or more secretagogues depending upon its site of action. Compounds which reduce the response to dibutyryl cyclic adenosine monophosphate (DBcAMP) stimulation are assumed to have an intracellular site of action, and those which reduce the response to both DBcAMP and high potassium ion concentration (K^+) are thought to have an intracellular site of action at the secretory surface of the parietal cell, involving the highly specific proton--transporting enzyme, H^+ /K^+ ATPase. The following test procedure is used:
Rabbit gastric glands are isolated from gastric mucosa from the corpus region of the stomach by a method based on one described by Berglindh T., Obrink K. J., Acta Physiol. Scand. 96, 150-159 (1976). Measurement of aminopyrine uptake is carried out using a modification of the method described by Berglindh T., Hellander H. F., Obrink K. J. (ibid, 97, 401-414, 1976).
Compounds are tested at a concentration of 10^-4 M, initially, and in some cases at lower concentrations, for their ability to inhibit ^14 C-aminopyrine uptake in gastric glands, stimulated by DBcAMP and high K^+ respectively. Results are expressed as the % inhibition of the maximum response to the secretagogue induced by the test compound. An inhibitor of H^+ /K^+ ATPase would be expected to reduce the response to both secretagogues.

[2] = Stress-induced erosion test of Senay and Levine (anti-ulcer activity); format: in vivo; conditions: Dose 100 mg/kg
Experimental: Anti-ulcer activity was determined by the stressinduced erosion test of Senay and Levine, Proc. Soc. Exp. Biol. Med., 124, 1221-3 (1967).

[3] = DBcAMP stimulation, read-out: % Inhibition to Stimulation by DBcAMP at 10^-4
[4] = high K+ stimulation, read-out: % Inhibition to Stimulation by K^+ at 10^-4

T1 sequence (P27112 whole entry): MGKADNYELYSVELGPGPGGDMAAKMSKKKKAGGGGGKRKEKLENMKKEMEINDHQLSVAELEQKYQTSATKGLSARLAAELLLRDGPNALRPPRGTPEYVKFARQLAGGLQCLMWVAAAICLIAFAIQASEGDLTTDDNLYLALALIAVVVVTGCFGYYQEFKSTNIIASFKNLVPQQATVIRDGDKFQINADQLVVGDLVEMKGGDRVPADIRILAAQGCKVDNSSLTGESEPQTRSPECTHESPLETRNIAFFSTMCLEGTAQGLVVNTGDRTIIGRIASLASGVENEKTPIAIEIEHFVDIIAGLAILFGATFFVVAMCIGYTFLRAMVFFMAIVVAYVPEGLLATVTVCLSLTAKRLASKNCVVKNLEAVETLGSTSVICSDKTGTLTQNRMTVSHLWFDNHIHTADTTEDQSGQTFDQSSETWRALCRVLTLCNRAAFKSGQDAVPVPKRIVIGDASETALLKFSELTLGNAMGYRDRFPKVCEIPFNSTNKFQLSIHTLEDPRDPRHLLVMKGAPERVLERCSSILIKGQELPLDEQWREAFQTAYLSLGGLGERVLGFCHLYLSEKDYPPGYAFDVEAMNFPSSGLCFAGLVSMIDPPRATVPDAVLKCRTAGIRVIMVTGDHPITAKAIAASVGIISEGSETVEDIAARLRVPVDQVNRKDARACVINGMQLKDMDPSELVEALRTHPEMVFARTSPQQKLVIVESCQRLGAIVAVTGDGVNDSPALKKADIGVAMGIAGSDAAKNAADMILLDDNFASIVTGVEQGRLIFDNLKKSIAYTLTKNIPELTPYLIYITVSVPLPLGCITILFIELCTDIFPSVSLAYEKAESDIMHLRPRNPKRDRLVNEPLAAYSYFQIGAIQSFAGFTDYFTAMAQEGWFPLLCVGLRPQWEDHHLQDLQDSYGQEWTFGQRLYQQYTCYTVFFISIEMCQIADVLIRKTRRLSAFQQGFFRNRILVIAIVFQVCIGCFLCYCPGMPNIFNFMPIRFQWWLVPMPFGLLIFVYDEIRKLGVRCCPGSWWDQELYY
T1 sequence (P18597 whole entry partner): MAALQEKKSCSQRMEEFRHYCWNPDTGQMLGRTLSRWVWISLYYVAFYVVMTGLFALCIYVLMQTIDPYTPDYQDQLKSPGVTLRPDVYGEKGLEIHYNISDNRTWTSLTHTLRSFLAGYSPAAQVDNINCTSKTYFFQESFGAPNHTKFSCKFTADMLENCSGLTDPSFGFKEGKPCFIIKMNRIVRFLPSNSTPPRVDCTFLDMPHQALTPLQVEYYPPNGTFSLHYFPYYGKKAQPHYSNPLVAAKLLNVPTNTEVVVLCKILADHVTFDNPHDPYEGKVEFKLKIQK

SMILES	inhibition at 100 µM [1, 3]	inhibition at 100 µM [1, 4]	Stress Induced Erosion (Senay & Levine) % Inhibition [2]
Fc1ccccc1CSc1nc2cccc3c2n1CCC3 [Example 6, 5,6-Dihydro-2-(2-fluorophenylmethylthio)-[4H]-imidazo-[4,5,1-ij]quinoline]	40.6%	93%	
c1ccc(CSc2nc3cccc4c3n2CCC4)cc1 [Example 1, 2-Benzylthio-5,6,-dihydro-[4H]-imidazo [4,5,1-ij]-quinoline]	70%	111%	83%
C1=Cc2cccc3nc(SCc4ccccc4)n(c23)C1 [Example 7, 2-Benzylthio-[4H]-imidazo[4,5,1-ij]quinoline]	40%	63%	54%
Clc1ccccc1CSc1nc2cccc3c2n1CCC3 [Example 4, 2-(2-Chlorophenylmethylthio)-5,6-dihydro-[4H]-imidazo-[4,5,1-ij]quinoline]	32.9%	83.5%	55%
Fc1ccc(CSc2nc3cccc4c3n2CCC4)cc1 [Example 3, 5,6-Dihydro-2-(4-fluorophenylmethylthio)-[4H]-imidazo-[4,5,1,-ij]quinoline]	6.7%	76%	62%

The next lines start with results.

inhibition at 100 µM [1, 3]	inhibition at 100 µM [1, 4]	SMILES	Stress Induced Erosion (Senay & Levine) % Inhibition [2]
69%	54%	Clc1cccc(CSc2nc3cccc4c3n2CCC4)c1 [Example 2, 2-(3-Chlorobenzylthio)-5,6,-dihydro-[4H]-imidazo[4,5,1,-ij]quinoline]	
53%	109%	Clc1ccc(CSc2nc3cccc4c3n2CCC4)cc1 [Example 5, 2-(4-Chlorophenylmethylthio)-5,6-dihydro-[4H]-imidazo-[4,5,1-ij]quinoline]	
